Where two headings read alike, the source gives them in different places.
Experiments:
[1] = Cytotoxicity assay (CellTiter-Glo); format: cell-based; details: human, Huh7 cells stably expressing DENV-2 replicon
Experimental: Cytotoxicity Assay. Huh7 cells or Huh7 replicon cells were seeded in a 96-well plate. After incubation at 37° C. with 5% CO2 overnight, the cells were treated with 2-fold serial dilutions of compounds. Experiments were performed in duplicates. After 48 h of incubation, cell viability was measured by adding the CellTiter-Glo reagent (Promega) to each well. The cell viability in 0.45% DMSO-treatment groups was treated at 100%. The cell viability in compound-treated wells was normalized to that of DMSO-treated wells. CC50 values were calculated using four parameter logistic regression in GraphPad software Prism 8.0.

DENV-2 replicon = assay: Luciferase reporter replicon-based screening, DENV-2; format: cell-based, DENV-2 (New Guinea C strain, NGC)
Experimental: (§1) Luciferase Reporter Replicon-Based Screening. Huh7 cells containing a luciferase reporter replicon of DENV-1 (strain WestPac), DENV-2 (New Guinea C strain, NGC), DENV-3 (strain D3MY05-34640) and DENV-4 (strain D4MY01-22713) were used in this study. The replicon cells containing the Renilla luciferase and neomycin-resistance genes were generated using a similar strategy as described previously.^55 Briefly, Huh7 DENV-1 to -4 replicon cells were seeded at a density of 10k per well in a 96-well microplate. After incubation at 37° C. with 5% CO2 overnight, the cells were treated with 2-fold serial dilutions of compounds. Experiments were performed in duplicates. After 48 h of incubation, luciferase activities were measured using the EnduRen live-cell substrate (Promega) by following the manufacturer’s instructions. The dose-dependent curve was plotted and EC50 values were calculated using four parameter logistic regression in GraphPad software Prism 8.0.

DENV-3 replicon = assay: Luciferase reporter replicon-based screening, DENV-3; format: cell-based, DENV-3 (strain D3MY05-34640)
Experimental: as §1

DENV-1 replicon = assay: Luciferase reporter replicon-based screening, DENV-1; format: cell-based, DENV-1 (strain WestPac); details: Dengue virus, DENV1, Huh-7, 48 h, read-out: EC50 DENV-1
Experimental: as §1

DENV-4 replicon = assay: Luciferase reporter replicon-based screening, DENV-4; format: cell-based, DENV-4 (strain D4MY01-22713); details: Dengue virus, DENV4, Huh-7, 48 h, read-out: EC50 DENV-4
Experimental: as §1

[2] = Dengue virus, DENV2, Huh-7, 48 h, read-out: EC50 DENV-2, Huh7 cells stably expressing DENV-2 replicon, 48 h
[3] = Dengue virus, DENV3, Huh-7, 48 h, read-out: EC50 DENV-3, Huh7 cells stably expressing DENV-3 replicon, 48 h
[4] = read-out: EC50 DENV-2, Huh7 cells stably expressing DENV-2 replicon, 48 h

Structure (SMILES)	CC50 at 48 h [1]	EC50 (DENV-2 replicon; [2])	EC50 (DENV-3 replicon; [3])	EC50 (DENV-1 replicon)	EC50 (DENV-4 replicon)	EC50 (DENV-3 replicon; read-out: EC50 DENV-3, Huh7 cells stably expressing DENV-3 replicon, 48 h)	EC50 (DENV-2 replicon; [4])
C[C@@H](c1ccc(Cl)cc1)n1nnc2c1NC(=O)C[C@]21C(=O)N(CCCCCCBr)c2ccc(Cl)cc21 [Compound 49, (R)-1'-(6-Bromohexyl)-5'-chloro-3-((S)-1-(4-chlorophenyl)ethyl)-4,6-dihydrospiro[[1,2,3]triazolo[4,5-b]pyridine-7,3'-indoline]-2ʹ,5(3H)-dione]	> 10 µM	3 µM	–	–	–	–	–
COc1cccc(CN2C(=O)[C@]3(CC(=O)Nc4c3nnn4[C@@H](C)c3ccc(Cl)cc3)c3cc(Cl)ccc32)c1 [Compound 29, (R)-5'-Chloro-3-((S)-1-(4-chlorophenyl)ethyl)-1'-(3-methoxybenzyl)-4,6-dihydrospiro[[1,2,3]triazolo[4,5-b]pyridine-7,3'-indoline]-2',5(3H)-dione]	> 10 µM	0.83 µM	0.087 µM	2.6 µM	6.2 µM	–	–
C[C@@H](c1ccc(Cl)cc1)n1nnc2c1NC(=O)C[C@]21C(=O)Nc2ccc(Cl)cc21 [Compound 1a, (R)-5'-Chloro-3-((S)-1-(4-chlorophenyl)ethyl)-4,6-dihydrospiro[[1,2,3]triazolo[4,5-b]pyridine-7,3'-indoline]-2',5(3H)-dione]	> 10 µM	0.039 µM	0.01 µM	> 5 µM	> 5 µM	–	–
C[C@@H](c1ccc(Cl)cc1)n1nnc2c1NC(=O)C[C@]21C(=O)N(Cc2ccc(Cl)nc2)c2ccc(Cl)cc21 [Compound 36, (R)-5'-Chloro-3-((S)-1-(4-chlorophenyl)ethyl)-1'-((6-chloropyridin-3-yl)methyl)-4,6-dihydrospiro[[1,2,3]triazolo[4,5-b]pyridine-7,3ʹ-indoline]-2',5(3H)-dione]	> 10 µM	0.078 µM	0.006 µM	> 5 µM	> 5 µM	–	–
C[C@@H](c1ccc(Cl)cc1)n1nnc2c1NC(=O)C[C@]21C(=O)N(Cc2cccnc2)c2ccc(Cl)cc21 [Compound 34, (R)-5'-Chloro-3-((S)-1-(4-chlorophenyl)ethyl)-1'-(pyridin-3-ylmethyl)-4,6-dihydrospiro[[1,2,3]triazolo[4,5-b]pyridine-7,3'-indoline]-2',5(3H)-dione]	> 10 µM	0.029 µM	0.021 µM	3.2 µM	> 5 µM	–	–
C[C@@H](c1ccc(Cl)cc1)n1nnc2c1NC(=O)C[C@]21C(=O)N(Cc2ccc(Cl)c(F)c2)c2ccc(Cl)cc21 [Compound 28, (R)-5'-Chloro-1'-(4-chloro-3-fluorobenzyl)-3-((S)-1-(4-chlorophenyl)ethyl)-4,6-dihydrospiro[[1,2,3]triazolo[4,5-b]pyridine-7,3'-indoline]-2',5(3H)-dione]	> 10 µM	4 µM	0.29 µM	1.5 µM	5.1 µM	–	–
C[C@@H](c1ccc(Cl)cc1)n1nnc2c1NC(=O)C[C@]21C(=O)N(CCCN2CCCCC2)c2ccc(Cl)cc21 [Compound 64, (R)-5'-Chloro-3-((S)-1-(4-chlorophenyl)ethyl)-1'-(3-(piperidin-1-yl)propyl)-4,6-dihydrospiro[[1,2,3]triazolo[4,5-b]pyridine-7,3'-indoline]-2',5(3H)-dione]	> 10 µM	0.13 µM	0.012 µM	> 5 µM	> 5 µM	–	–
CCOC(CN1C(=O)[C@]2(CC(=O)Nc3c2nnn3[C@@H](C)c2ccc(Cl)cc2)c2cc(Cl)ccc21)OCC [Compound 41, (R)-5'-Chloro-3-((S)-1-(4-chlorophenyl)ethyl)-1'-(2,2-diethoxyethyl)-4,6-dihydrospiro[[1,2,3]triazolo[4,5-b]pyridine-7,3ʹ-indoline]-2',5(3H)-dione]	> 10 µM	–	–	> 5 µM	> 5 µM	–	–
C=CCN1C(=O)[C@]2(CC(=O)Nc3c2nnn3[C@@H](C)c2ccc(Cl)cc2)c2cc(Cl)ccc21 [Compound 18, (R)-1'-Allyl-5'-chloro-3-((S)-1-(4-chlorophenyl)ethyl)-4,6-dihydrospiro[[1,2,3]triazolo[4,5-b]pyridine-7,3ʹ-indoline]-2',5(3H)-dione]	> 10 µM	0.038 µM	0.005 µM	2.1 µM	> 5 µM	–	–
CCCN1C(=O)[C@]2(CC(=O)Nc3c2nnn3[C@@H](C)c2ccc(Cl)cc2)c2cc(Cl)ccc21 [Compound 9, (R)-5'-Chloro-3-((S)-1-(4-chlorophenyl)ethyl)-1'-propyl-4,6-dihydrospiro[[1,2,3]triazolo[4,5-b]pyridine-7,3'-indoline]-2',5(3H)-dione]	> 10 µM	0.071 µM	0.01 µM	1.9 µM	> 5 µM	–	–
C[C@@H](c1ccc(Cl)cc1)n1nnc2c1NC(=O)C[C@]21C(=O)N(CCN(C)C)c2ccc(Cl)cc21 [Compound 57, (R)-5'-Chloro-3-((S)-1-(4-chlorophenyl)ethyl)-1'-(2-(dimethylamino)ethyl)-4,6-dihydrospiro[[1,2,3]triazolo[4,5-b]pyridine-7,3'-indoline]-2',5(3H)-dione]	> 10 µM	0.025 µM	0.002 µM	> 5 µM	> 5 µM	–	–
COC(=O)CN1C(=O)[C@]2(CC(=O)Nc3c2nnn3[C@@H](C)c2ccc(Cl)cc2)c2cc(Cl)ccc21 [Compound 43, Methyl 2-((R)-5'-chloro-3-((S)-1-(4-chlorophenyl)ethyl)-2',5-dioxo-3,4,5,6-tetrahydrospiro[[1,2,3]triazolo[4,5-b]pyridine-7,3'-indolin]-1'-yl)acetate]	> 10 µM	–	0.009 to 0.076 µM	> 5 µM	> 5 µM	0.011 µM	–
C[C@@H](c1ccc(Cl)cc1)n1nnc2c1NC(=O)C[C@]21C(=O)N(CCCCCCCCBr)c2ccc(Cl)cc21 [Compound 50, (R)-1'-(8-bromooctyl)-5'-chloro-3-((S)-1-(4-chlorophenyl)ethyl)-4,6-dihydrospiro[[1,2,3]triazolo[4,5-b]pyridine-7,3'-indoline]-2',5(3H)-dione]	> 10 µM	> 5 µM	–	–	–	–	–
C[C@@H](c1ccc(Cl)cc1)n1nnc2c1NC(=O)C[C@]21C(=O)N(Cc2ccc(F)cc2)c2ccc(Cl)cc21 [Compound 25, (R)-5'-Chloro-3-((S)-1-(4-chlorophenyl)ethyl)-1'-(4-fluorobenzyl)-4,6-dihydrospiro[[1,2,3]triazolo[4,5-b]pyridine-7,3'-indoline]-2',5(3H)-dione]	> 10 µM	0.14 to 0.29 µM	–	5 µM	10 µM	–	0.16 µM
C[C@@H](c1ccc(Cl)cc1)n1nnc2c1NC(=O)C[C@]21C(=O)N(Cc2cccc(F)c2)c2ccc(Cl)cc21 [Compound 26, (R)-5'-Chloro-3-((S)-1-(4-chlorophenyl)ethyl)-1'-(3-fluorobenzyl)-4,6-dihydrospiro[[1,2,3]triazolo[4,5-b]pyridine-7,3'-indoline]-2',5(3H)-dione]	> 10 µM	–	–	10 µM	> 5 µM	–	–
C[C@@H](c1ccc(Cl)cc1)n1nnc2c1NC(=O)C[C@]21C(=O)N(CCCCCl)c2ccc(Cl)cc21 [Compound 48, (R)-5'-Chloro-1'-(4-chlorobutyl)-3-((S)-1-(4-chlorophenyl)ethyl)-4,6-dihydrospiro[[1,2,3]triazolo[4,5-b]pyridine-7,3'-indoline]-2',5(3H)-dione]	> 10 µM	0.037 to 0.29 µM	–	> 5 µM	> 5 µM	–	0.073 µM
C[C@@H](c1ccc(Cl)cc1)n1nnc2c1NC(=O)C[C@]21C(=O)N(CC(=O)O)c2ccc(Cl)cc21 [Compound 45, 2-((R)-5'-Chloro-3-((S)-1-(4-chlorophenyl)ethyl)-2',5-dioxo-3,4,5,6-tetrahydrospiro[[1,2,3]triazolo[4,5-b]pyridine-7,3'-indolin]-1ʹ-yl)acetic acid]	> 10 µM	2.4 µM	–	–	–	–	–
COCOCCN1C(=O)[C@]2(CC(=O)Nc3c2nnn3[C@@H](C)c2ccc(Cl)cc2)c2cc(Cl)ccc21 [Compound 38, (R)-5'-Chloro-3-((S)-1-(4-chlorophenyl)ethyl)-1'-(2-(methoxymethoxy)ethyl)-4,6-dihydrospiro[[1,2,3]triazolo[4,5-b]pyridine-7,3'-indoline]-2',5(3H)-dione]	> 10 µM	–	–	> 5 µM	> 5 µM	–	–
